Measured values reported in ChEMBL document CHEMBL5329195, “Identification of novel glucocerebrosidase chaperones by unexpected skeletal rearrangement reaction” (Bioorg Med Chem Lett, 2023).
The source made the active and inactive calls. The calls are words filed in the database; no cut-off is given here.

Key:
[1] = target: T1, Lysosomal acid glucosylceramidase (Homo sapiens, UniProt P04062, N409S); assay: Chaperone activity at GCase N370S GBA mutant in patient derived fibroblast cells using 4-methylumbelliferyl-beta-D-glucopyranoside as substrate incubated for 5 days by fluorescence based analysis; format: cell-based
[2] = Stability of the compound in human liver microsomes assessed as intrinsic clearance; format: ADME, Microsome; conditions: read-out: CLH
[3] = Stability of the compound in mouse liver microsomes assessed as intrinsic clearance; format: ADME, Microsome; conditions: read-out: CLH
[4] = Solubility of the compound at pH 7.4; format: physicochemical; conditions: buffer
[5] = Solubility of the compound at pH 1.2; format: physicochemical; conditions: buffer
[6] = target: T1, Lysosomal acid glucosylceramidase; assay: Inhibition of GCase N370S GBA mutant in patient derived fibroblast cells using 4-methylumbelliferyl-beta-D-glucopyranoside as substrate incubated for 5 days by fluorescence based analysis; format: cell-based
[7] = target: Voltage-gated inwardly rectifying potassium channel KCNH2 (Homo sapiens, UniProt Q12809); assay: Inhibition of human ERG; format: toxicity
[8] = test system: T2, Lysosomal acid glucosylceramidase (Homo sapiens), P04062 [N409S]; assay: Inhibition of GCase N370S GBA mutant in patient derived fibroblast cells using 4-methylumbelliferyl-beta-D-glucopyranoside as substrate incubated for 5 days by fluorescence based analysis relative to control; format: cell-based; conditions: time 5.0 day
T2 sequence (whole entry): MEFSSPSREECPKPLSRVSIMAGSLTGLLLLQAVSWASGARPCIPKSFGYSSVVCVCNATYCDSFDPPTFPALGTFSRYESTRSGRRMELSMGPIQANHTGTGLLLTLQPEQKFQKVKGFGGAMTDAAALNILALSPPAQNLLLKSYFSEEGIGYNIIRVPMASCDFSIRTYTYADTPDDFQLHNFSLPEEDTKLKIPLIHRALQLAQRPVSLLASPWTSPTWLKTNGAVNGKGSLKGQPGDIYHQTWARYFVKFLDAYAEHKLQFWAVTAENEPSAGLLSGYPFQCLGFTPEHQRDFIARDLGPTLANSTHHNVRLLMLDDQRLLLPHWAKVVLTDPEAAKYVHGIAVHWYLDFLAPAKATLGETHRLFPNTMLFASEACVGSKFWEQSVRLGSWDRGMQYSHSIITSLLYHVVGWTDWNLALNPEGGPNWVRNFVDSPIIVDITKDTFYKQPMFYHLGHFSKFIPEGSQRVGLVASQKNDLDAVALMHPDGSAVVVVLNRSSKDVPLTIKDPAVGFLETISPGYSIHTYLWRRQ

[9] = test system: T2, Lysosomal acid glucosylceramidase (Homo sapiens), P04062 [N409S]; assay: Chaperone activity at GCase N370S GBA mutant in patient derived fibroblast cells using 4-methylumbelliferyl-beta-D-glucopyranoside as substrate incubated for 5 days by fluorescence based analysis relative to control; format: cell-based; conditions: time 5.0 day
[10] = Stability of the compound in JPI fluid at pH 1.2; format: physicochemical; conditions: buffer
[11] = Stability of the compound in DMSO; format: physicochemical

Voltage-gated inwardly rectifying potassium channel KCNH2, sequence (Q12809 whole entry): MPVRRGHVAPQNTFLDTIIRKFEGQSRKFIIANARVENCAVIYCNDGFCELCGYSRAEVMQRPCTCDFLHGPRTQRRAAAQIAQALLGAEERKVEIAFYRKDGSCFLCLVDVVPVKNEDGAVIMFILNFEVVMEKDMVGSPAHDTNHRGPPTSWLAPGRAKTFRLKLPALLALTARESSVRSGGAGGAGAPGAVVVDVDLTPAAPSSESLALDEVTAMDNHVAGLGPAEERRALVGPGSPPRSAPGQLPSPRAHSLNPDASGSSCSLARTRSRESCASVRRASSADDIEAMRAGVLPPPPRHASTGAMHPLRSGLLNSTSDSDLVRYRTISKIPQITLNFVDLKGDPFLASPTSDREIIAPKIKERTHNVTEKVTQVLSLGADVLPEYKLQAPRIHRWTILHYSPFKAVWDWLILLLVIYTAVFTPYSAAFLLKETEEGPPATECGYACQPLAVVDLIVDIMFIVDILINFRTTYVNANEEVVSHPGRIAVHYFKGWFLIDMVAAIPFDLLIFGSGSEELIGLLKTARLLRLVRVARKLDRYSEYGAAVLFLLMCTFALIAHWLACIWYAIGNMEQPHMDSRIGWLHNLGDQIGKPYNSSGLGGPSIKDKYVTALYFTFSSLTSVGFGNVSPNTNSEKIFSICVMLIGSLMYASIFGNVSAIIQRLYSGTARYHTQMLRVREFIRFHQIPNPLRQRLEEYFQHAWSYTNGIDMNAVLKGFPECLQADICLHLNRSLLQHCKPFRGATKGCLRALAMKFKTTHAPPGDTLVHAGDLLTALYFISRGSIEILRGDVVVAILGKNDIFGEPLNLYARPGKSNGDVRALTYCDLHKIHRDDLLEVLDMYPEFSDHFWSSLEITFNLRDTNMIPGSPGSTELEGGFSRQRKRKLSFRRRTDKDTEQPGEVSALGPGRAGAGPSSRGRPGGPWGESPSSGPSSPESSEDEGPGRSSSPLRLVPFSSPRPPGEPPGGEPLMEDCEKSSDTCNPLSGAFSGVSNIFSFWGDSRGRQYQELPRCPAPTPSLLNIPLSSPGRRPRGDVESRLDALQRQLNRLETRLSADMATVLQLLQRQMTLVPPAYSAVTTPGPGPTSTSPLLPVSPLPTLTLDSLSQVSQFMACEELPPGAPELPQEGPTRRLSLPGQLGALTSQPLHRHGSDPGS

SMILES	EC50 ([1]; read-out: EC50) [nM]	Emax [9]	further results
Cc1n[nH]c2c1[C@@H](O)[C@H](n1nnc3ccccc31)[C@@H](c1ccccc1Br)N2 [listing 1 of 2 here]	86		microsomal CLint [2]: 22.7 µL/min/mg; microsomal CLint [3]: 31.4 µL/min/mg; solubility [4]: > 100 µM; solubility [5]: > 100 µM; IC50 ([6]; read-out: IC50): 330 nM; IC50 [7]: > 25000 nM
Cc1n[nH]c2c1[C@H](O)[C@@H](n1nnc3ccccc31)[C@H](c1ccccc1Cl)N2		inactive	Emax [8]: inactive; EC50 ([1]; fibroblast): Not Active; IC50 ([6]; fibroblast): Not Active
Cc1n[nH]c2c1[C@@H](O)[C@H](n1nnc3ccccc31)[C@@H](c1ccccc1Cl)N2 [listing 1 of 2 here]	76		microsomal CLint [2]: 9.61 µL/min/mg; microsomal CLint [3]: 15.7 µL/min/mg; solubility [4]: > 100 µM; solubility [5]: > 100 µM; IC50 ([6]; read-out: IC50): 110 nM; IC50 [7]: > 25000 nM
Cc1n[nH]c2c1[C@@H](O)[C@H](n1nnc3ccccc31)[C@@H](c1ccccc1)N2 [listing 1 of 2 here]	1100		microsomal CLint [2]: 5.01 µL/min/mg; microsomal CLint [3]: 9.88 µL/min/mg; solubility [4]: > 100 µM; solubility [5]: > 100 µM; IC50 ([6]; read-out: IC50): 3200 nM
Cc1n[nH]c2c1[C@H](O)[C@@H](n1nnc3ccccc31)[C@H](c1ccccc1)N2		inactive	Emax [8]: inactive; EC50 ([1]; fibroblast): Not Active; IC50 ([6]; fibroblast): Not Active
Cc1cc2n(n1)C(O)[C@H](n1nnc3ccccc31)[C@@H](c1ccccc1)N2 (some centres not stated)	5600		Stability [10]: Stable; Stability [11]: Stable
Cc1n[nH]c2c1[C@H](O)[C@@H](n1nnc3ccccc31)[C@H](c1ccccc1Br)N2		inactive	EC50 ([1]; fibroblast): Not Active
Cc1n[nH]c2c1[C@@H](O)[C@H](n1nnc3ccccc31)[C@@H](c1ccccc1)N2 [listing 2 of 2 here]		137%	Emax [8]: 95%
Cc1n[nH]c2c1[C@@H](O)[C@H](n1nnc3ccccc31)[C@@H](c1ccccc1Br)N2 [listing 2 of 2 here]		170%	Emax [8]: 101%
Cc1n[nH]c2c1[C@@H](O)[C@H](n1nnc3ccccc31)[C@@H](c1ccccc1Cl)N2 [listing 2 of 2 here]		163%	Emax [8]: 85%
OC[C@H]1CNC[C@@H](O)[C@@H]1O		103%	Emax [8]: 103%
O[C@@H]1c2c(-c3ccccc3)n[nH]c2N[C@H](c2ccccc2Cl)[C@H]1n1nnc2ccccc21 (racemic)		inactive	EC50 ([1]; fibroblast): Not Active
Cc1n[nH]c2c1[C@@H](O)[C@H](n1nnc3ccccc31)[C@@H](c1ccccc1C(F)(F)F)N2 (racemic)	470	160%	Emax [8]: 103%; IC50 ([6]; read-out: IC50): 1100 nM
Cc1cccc([C@H]2Nc3[nH]nc(C)c3[C@@H](O)[C@@H]2n2nnc3ccccc32)c1 (racemic)	1100	158%	
Cc1n[nH]c2c1[C@@H](O)[C@H](n1nnc3ccccc31)[C@@H](c1ccccc1Br)N2 (racemic) [listing 1 of 2 here]	200		
O[C@@H]1c2c(C3CC3)n[nH]c2N[C@H](c2ccccc2Cl)[C@H]1n1nnc2ccccc21 (racemic)	83	172%	Emax [8]: 95%; IC50 ([6]; read-out: IC50): 74 nM
Cc1ccc([C@H]2Nc3[nH]nc(C)c3[C@@H](O)[C@@H]2n2nnc3ccccc32)cc1 (racemic)	1100	157%	
Cc1n[nH]c2c1[C@@H](O)[C@H](n1nnc3ccccc31)[C@@H](c1cccc(Cl)c1Cl)N2 (racemic)	140	140%	
O[C@@H]1c2cn[nH]c2N[C@H](c2ccccc2)[C@H]1n1nnc2ccccc21 (racemic)	> 16000	> 40%	
O[C@@H]1c2ccccc2N[C@H](c2ccccc2)[C@H]1n1nnc2ccccc21 (racemic)		inactive	EC50 ([1]; fibroblast): Not Active
O[C@@H]1c2cnccc2N[C@H](c2ccccc2Cl)[C@H]1n1nnc2ccccc21 (racemic)	> 16000	> 239%	
Cc1n[nH]c2c1[C@@H](O)[C@H](n1nnc3ccccc31)[C@@H](c1ccccc1Cl)N2 (racemic) [listing 1 of 2 here]	140		
O[C@@H]1c2c(C3CCCC3)n[nH]c2N[C@H](c2ccccc2)[C@H]1n1nnc2ccccc21 (racemic)		inactive	EC50 ([1]; fibroblast): Not Active

SMILES	EC50 ([1]; read-out: EC50) [nM]	Emax [9]	further results
COCc1n[nH]c2c1[C@@H](O)[C@H](n1nnc3ccccc31)[C@@H](c1ccccc1)N2 (racemic)		inactive	EC50 ([1]; fibroblast): Not Active
Cc1n[nH]c2c1[C@@H](O)[C@H](n1nnc3ccccc31)[C@@H](C1CCCCCC1)N2 (racemic)	230	170%	
Cc1n[nH]c2c1[C@@H](O)[C@H](n1nnc3ccccc31)[C@@H](c1ccccc1)N2 (racemic) [listing 1 of 2 here]	1400		
Cc1n[nH]c2c1[C@@H](O)[C@H](n1nnc3ccccc31)[C@@H](C1CCCCC1)N2 (racemic)	370	180%	Emax [8]: 102%; IC50 ([6]; read-out: IC50): 650 nM
COc1ccccc1[C@H]1Nc2[nH]nc(C)c2[C@@H](O)[C@@H]1n1nnc2ccccc21 (racemic)	3300	145%	
Cc1cccc([C@H]2Nc3[nH]nc(C)c3[C@@H](O)[C@@H]2n2nnc3ccccc32)c1Cl (racemic)	150	147%	
Cc1n[nH]c2c1[C@@H](O)[C@H](n1nnc3ccccc31)[C@@H](C1CCOCC1)N2 (racemic)	> 16000	> 65%	
Cc1n[nH]c2c1[C@@H](O)[C@H](n1nnc3ccccc31)[C@@H](c1ccc(Cl)cc1Cl)N2 (racemic)	740	150%	
Cc1n[nH]c2c1[C@@H](O)[C@H](n1nnc3ccccc31)[C@@H](c1cccc(F)c1)N2 (racemic)	1200	137%	
Cc1ccccc1[C@H]1Nc2[nH]nc(C)c2[C@@H](O)[C@@H]1n1nnc2ccccc21 (racemic)	1900	158%	Emax [8]: 97%; IC50 ([6]; read-out: IC50): 4600 nM
Cc1n[nH]c2c1[C@@H](O)[C@H](n1nnc3ccccc31)[C@@H](c1ccc(F)cc1)N2 (racemic)	2200	61%	
CC(C)(C)c1n[nH]c2c1[C@@H](O)[C@H](n1nnc3ccccc31)[C@@H](c1ccccc1Cl)N2 (racemic)	7400	132%	
Cc1n[nH]c2c1[C@@H](O)[C@H](n1nnc3ccccc31)[C@@H](c1cc(Cl)ccc1Cl)N2 (racemic)	720	145%	
Cc1n[nH]c2c1[C@@H](O)[C@H](n1nnc3ccccc31)[C@@H](c1cccc(F)c1Cl)N2 (racemic)	110	148%	
Cc1n[nH]c2c1[C@@H](O)[C@H](n1nnc3ccccc31)[C@@H](C1CC1)N2 (racemic)		inactive	EC50 ([1]; fibroblast): Not Active
Cc1n[nH]c2c1[C@@H](O)[C@H](n1nnc3ccccc31)[C@@H](C1CCCC1)N2 (racemic)	1900	150%	
CCc1n[nH]c2c1[C@@H](O)[C@H](n1nnc3ccccc31)[C@@H](c1ccccc1Cl)N2 (racemic)	480	191%	
Cc1n[nH]c2c1[C@@H](O)[C@H](n1nnc3ccccc31)[C@@H](C)N2 (racemic)		inactive	EC50 ([1]; fibroblast): Not Active
O[C@@H]1c2ccncc2N[C@H](c2ccccc2Cl)[C@H]1n1nnc2ccccc21 (racemic)	570	151%	Emax [8]: 99%; IC50 ([6]; read-out: IC50): 1800 nM
Cc1n[nH]c2c1[C@@H](O)[C@H](n1nnc3ccccc31)[C@@H](c1ccccc1F)N2 (racemic)	970	137%	Emax [8]: 103%; IC50 ([6]; read-out: IC50): 1800 nM
Cc1n[nH]c2c1[C@@H](O)[C@H](n1nnc3ccccc31)[C@@H](c1ccccc1)N2 (racemic) [listing 2 of 2 here]		173%	
Cc1n[nH]c2c1[C@@H](O)[C@H](n1nnc3ccccc31)[C@@H](c1ccccc1Br)N2 (racemic) [listing 2 of 2 here]		164%	
Cc1n[nH]c2c1[C@@H](O)[C@H](n1nnc3ccccc31)[C@@H](c1ccccc1Cl)N2 (racemic) [listing 2 of 2 here]		160%	
